# According to US20060094880A9, “Synthetic process for trans-aminocyclohexyl ether compounds” (priority 2003, published 2006):
# Tested on: sustained AF maintained during continuous vagal nerve stimulation
# Assay: Canine vagal-AF model: termination of sustained AF during continuous vagal nerve stimulation
# Assay type: in vivo, Mongrel dogs
# Procedure: St.-Georges et al., 1997). Dogs are ventilated mechanically with room air supplemented with oxygen via an endotracheal tube at 20 to 25 breaths/minute with a tidal volume obtained from a nomogram. […] Catheters are inserted into the femoral artery for blood pressure recording and blood gas measurement, and into both femoral veins for drug administration and venous sampling. […] Body temperature is maintained at 37-40° C. with a heating blanket. The heart is exposed via a medial thoracotomy and a pericardial cradle is created. […] Drug effects to terminate sustained AF maintained during continuous vagal nerve stimulation are assessed. […] The vagal stimulation voltage is adjusted under control conditions, and then readjusted after each treatment to maintain the same bradycardic effect. […] Diastolic threshold and ERP are determined in duplicate and averaged to give a single value. […] The interval from the stimulus artefact and the peak of the local electrogram is measured as an index of conduction velocity. […] The stimulus voltage-heart rate relationship for vagal nerve stimulation is determined under control conditions in most experiments. […] After the termination of AF, the diastolic threshold and ERP of the atrium and ventricle are determined. […] Group data are expressed as the mean ±SEM. […]
smiles,measurement,value
O=C(NCC1CCCCN1)c1cc(OCC(F)(F)F)ccc1OCC(F)(F)F (stereo not shown) [Flecainide],Effectiveness as a control in the present study,comparable to that previously reported
